Assay results as given in doi:10.1101/2025.05.22.655619v4 (bioRxiv, 2025).
Residues, ends and D or L forms follow the SMILES beside them.

Columns and labels:
defibrinated sheep blood = experiment: Hemolysis assay; assay type: cell-based; conditions: for Hemo/MIC = (< 20% Hemo) / MIC Ec: MICs >50 µM treated as 100 µM, >200 µM treated as 200 µM
E. coli (ATCC 25922) = experiment: Antimicrobial susceptibility testing; assay type: cell-based, Escherichia coli; conditions: summary values

Molecule: CC[C@H](C)[C@H](NC(=O)[C@H](CCCCN)NC(=O)[C@H](CCC(=O)O)NC(=O)[C@H](CCCCN)NC(=O)[C@H](CO)NC(=O)[C@H](CCCCN)NC(=O)[C@H](CCCNC(=N)N)NC(=O)[C@H](Cc1ccccc1)NC(=O)[C@H](Cc1ccccc1)NC(=O)[C@H](CC(=O)O)NC(=O)CN)C(=O)NCC(=O)N[C@@H](CCCCN)C(=O)N[C@@H](CCC(=O)O)C(=O)N[C@@H](Cc1ccccc1)C(=O)N[C@@H](CCCCN)C(=O)N[C@@H](CCCNC(=N)N)C(=O)N[C@H](C(=O)N[C@H](C(=O)N[C@@H](CCC(N)=O)C(=O)N[C@@H](CCCNC(=N)N)C(=O)N[C@H](C(=O)N[C@@H](CCCCN)C(=O)O)[C@@H](C)CC)C(C)C)[C@@H](C)CC [(#4) GD-23] (H-GDFFRKSKEKIGKEFKRIVQRIK-OH; N-terminus and C-terminus assumed)
- Fold Δ = (Hemo/MIC of compound) / (Hemo/MIC of LL-37) (defibrinated sheep blood; Figure 1B): 64
- Fold Δ = (Hemo/MIC of compound) / (Hemo/MIC of LL-37) (defibrinated sheep blood; Figure 6C): 32
- Hemo/MIC = (< 20% Hemo) / MIC Ec (defibrinated sheep blood; Figure 6C): 32

Molecule: CC[C@H](C)[C@H](NC(=O)[C@H](CCCNC(=N)N)NC(=O)[C@H](CCC(N)=O)NC(=O)[C@@H](NC(=O)[C@@H](NC(=O)[C@H](CCCNC(=N)N)NC(=O)[C@@H](N)CCCCN)[C@@H](C)CC)C(C)C)C(=O)N[C@@H](CCCCN)C(=O)N[C@@H](CC(=O)O)C(=O)N[C@@H](Cc1ccccc1)C(=O)N[C@@H](CC(C)C)C(=O)N[C@@H](CCCNC(=N)N)C(=O)O [(#10) KR-12] (H-KRIVQRIKDFLR-OH)
- MIC against E. coli as stated in the text and in the table of contents graphic (E. coli (ATCC 25922)): > 50 µM

Molecule: CC[C@H](C)[C@H](NC(=O)[C@H](CCCNC(=N)N)NC(=O)[C@H](CCC(N)=O)NC(=O)[C@@H](NC(=O)[C@@H](NC(=O)[C@H](CCCNC(=N)N)NC(=O)[C@H](CCCCN)NC(=O)[C@H](Cc1ccccc1)NC(=O)[C@@H](N)Cc1ccccc1)[C@@H](C)CC)C(C)C)C(=O)N[C@@H](CCCCN)C(=O)N[C@@H](CC(=O)O)C(=O)N[C@@H](Cc1ccccc1)C(=O)N[C@@H](CC(C)C)C(=O)N[C@@H](CCCNC(=N)N)C(=O)O [(#18) FF-14] (H-FFKRIVQRIKDFLR-OH)
- MIC against E. coli as stated in the text and in the table of contents graphic (E. coli (ATCC 25922)): 3.1 µM

Molecule: CC[C@H](C)[C@H](NC(=O)[C@H](CCCCN)NC(=O)[C@H](CCC(=O)O)NC(=O)[C@H](CCCCN)NC(=O)[C@H](CO)NC(=O)[C@H](CCCCN)NC(=O)[C@H](CCCNC(=N)N)NC(=O)[C@H](Cc1ccccc1)NC(=O)[C@H](Cc1ccccc1)NC(=O)[C@H](CC(=O)O)NC(=O)CNC(=O)[C@H](CC(C)C)NC(=O)[C@@H](N)CC(C)C)C(=O)NCC(=O)N[C@@H](CCCCN)C(=O)N[C@@H](Cc1ccccc1)C(=O)N[C@@H](Cc1ccccc1)C(=O)N[C@@H](CCCCN)C(=O)N[C@@H](CCCNC(=N)N)C(=O)N[C@H](C(=O)N[C@H](C(=O)N[C@@H](CCC(N)=O)C(=O)N[C@@H](CCCNC(=N)N)C(=O)N[C@H](C(=O)N[C@@H](CCCCN)C(=O)O)[C@@H](C)CC)C(C)C)[C@@H](C)CC [(#49) LL-25 (FF)] (H-LLGDFFRKSKEKIGKFFKRIVQRIK-OH; N-terminus assumed)
- Fold Δ = (Hemo/MIC of compound) / (Hemo/MIC of LL-37) (defibrinated sheep blood; Figure 6C): 4
- Hemo/MIC = (< 20% Hemo) / MIC Ec (defibrinated sheep blood; Figure 6C): 4

Molecule: CC[C@H](C)[C@H](NC(=O)[C@H](CCCCN)NC(=O)[C@H](CCC(=O)O)NC(=O)[C@H](CCCCN)NC(=O)[C@H](CO)NC(=O)[C@H](CCCCN)NC(=O)[C@H](CCCNC(=N)N)NC(=O)[C@H](Cc1ccccc1)NC(=O)[C@H](Cc1ccccc1)NC(=O)[C@H](CC(=O)O)NC(=O)CN)C(=O)NCC(=O)N[C@@H](CCCCN)C(=O)N[C@@H](Cc1ccccc1)C(=O)N[C@@H](Cc1ccccc1)C(=O)N[C@@H](CCCCN)C(=O)N[C@@H](CCCNC(=N)N)C(=O)N[C@H](C(=O)N[C@H](C(=O)N[C@@H](CCC(N)=O)C(=O)N[C@@H](CCCNC(=N)N)C(=O)N[C@H](C(=O)N[C@@H](CCCCN)C(=O)O)[C@@H](C)CC)C(C)C)[C@@H](C)CC [(#53) GD-23 (FF)] (H-GDFFRKSKEKIGKFFKRIVQRIK-OH; N-terminus and C-terminus assumed)
- Fold Δ = (Hemo/MIC of compound) / (Hemo/MIC of LL-37) (defibrinated sheep blood; Figure 6C): 16
- Hemo/MIC = (< 20% Hemo) / MIC Ec (defibrinated sheep blood; Figure 6C): 16

Molecule: Colistin [reference compound]
- Fold Δ = (Hemo/MIC of compound) / (Hemo/MIC of LL-37) (defibrinated sheep blood; Figure 1B): 512
- Fold Δ = (Hemo/MIC of compound) / (Hemo/MIC of LL-37) (defibrinated sheep blood; Figure 2B): 256
- Hemo/MIC = (< 20% Hemo) / MIC Ec (defibrinated sheep blood; Figure 2B): 64
- Hemo/MIC = (< 20% Hemo) / MIC Ec (defibrinated sheep blood; Figure 4B): 128
